Results reported in patent publication US7595345B2, “Vitamin D receptor modulators” (Eli Lilly and Company, priority 2003, dated 2009).
pEC50, pIC50: −log10 of the molar value.

How the values were obtained:
[1] = test system: IL-10 production in PBMCs; experiment: Human IL-10 induction assay; assay type: cell-based; details: PBMC; TPA/PHA treated human PBMCs, IL-10 in supernatant by immunoassay
Description: 6. The IL-10 Induction Assay
This is an in vitro efficacy assay for psoriasis, abscess and adhesion. Psoriasis involves both keratinocytes and immune cells. IL-10 is a unique cytokine because it is anti-inflammatory and immunosuppressive. This assay tells us whether a VDRM is able to function as an agonist in PBMCs (primary blood mononuclear cells) or not. A lower EC50 value is desirable in this assay since a compound with a lower EC50 value will be a better agonist in PBMCs. […] 7. Other Compound Assay Standards An alternative measure of the efficacy of compounds of the invention for treatment of osteoporosis is a numerical ratio calculated as follows: • Dose Threshold needed to induce hypercalcemia • divided by • Dose Threshold needed for bone efficacy An alternative measure of the efficacy of compounds of the invention for treatment of psoriasis is a numerical ratio calculated as follows: • Dose Threshold needed to induce hypercalcemia • divided by • Dose Threshold needed to induce keratinocyte proliferation For the above ratios, Dose Thresholds are determined from dose response curve data. 8. The CaT1 (Calcium Transport Protein 1) Assay The CaT1 Assay is an indicator for the undesirable condition of hypercalcemia. The higher the EC50 values for a compound the less calcemic it will be in vivo. […] Preferred assay results are greater than 1000 nM. Details of the Assay Methods: (1) Materials and Method for RXR-VDR Heterodimerization Assay: Transfection Method:
(6) Materials and Method for Human IL-10 Induction Assay:
Isolation of peripheral blood mononuclear cells (PBMCs): • A. Collect 50 ml of human blood and dilute with media, RPMI-1640. • B. Prepare sterile tubes with ficol. • C. Add diluted blood to tubes. • D. Centrifuge. • E. Discard the top layer and collect the cells from middle layer. • F. Divide all cells into four tubes and add media. • G. Centrifuge. • H. Aspirate off media and resuspend. • I. Collect all cells • J. Centrifuge. at 1200 rpm for 10 minutes. • K. Resuspend in RPMI-1640 with 2% FBS and count cells
Stimulation of PBMC: • L. Prepare TPA in DMSO. • M. Dissolve PHA in water. • N. Plate TPA/PHA treated PBMCs in well plates. • O. Incubate.
Treatment: • P. Prepare all compound dilutions in plain RPMI-1640 media. • Q. Add diluted compound. • R. Incubate.
Sample Collection and Assay: • S. Remove all the cells by centrifugation and assay the supernatant for IL-10 by immunoassay. • 1) T. Perform IL-10 assay using anti-human IL-10 antibody coated beads, as described by the manufacturer (Linco Research Inc., St. Charles, Mo.).

[2] = test system: rat osteocalcin promoter; experiment: OCN (osteocalcin) promoter assay; assay type: cell-based; details: RG-15 (ROS 17/2.8) cells, 48 hr treatment, luciferase
Method: 3. The OCN (Osteocalcin) Promoter Assay
The OCN Promoter Assay is an indicator and marker for osteoporosis. Desired assay results are EC50 less than or equal to […]. Preferred assay results are less than […].
(3) Materials and Method for the OCN Promoter Assay:
The activation of osteocalcin by VDR ligands was evaluated in a rat osteoblast-like cell line RG-15 (ROS 17/2.8) stably expressing rat osteocalcin promoter fused with luciferase reporter gene. The stable cell lines were established as reported before (Activation of Osteocalcin Transcription involves interaction of protein kinase A- and Protein kinase C-dependent pathways. Boguslawski, G., Hale, L. V., Yu, X.-P., Miles, R. R., Onyia, J. E., Santerre R. F., Chandrasekhar, S. J. Biol. Chem. 275, 999-1006, 2000). Confluent RG-15 cells maintained in DMEM/F-12 medium (3:1) containing 5% FBS, 300 µg/ml G418 and at 37° C. under 5% CO2/95% air atmosphere were trypsinized (0.25% trypsin) and plated into white opaque 96-well cell culture plates (25000 cells/well). After 24 hr, cells (in DMEM/F-12 medium+2% FBS) were treated with various concentrations of compounds, dissolved in DMSO. The final DMSO concentration remained at 0.01% (v/v). After 48 hr treatment, the medium was removed, cells were lysed with 50 µl of lysis buffer (From Luciferase reporter assay system, Roche Diagnostics, Indianapolis, Ind.) and assayed for luciferase activity using the Luciferase Reporter Gene Assay kit from Boehringer Mannheim as per manufacturer's specifications.

[3] = Mouse hypercalcemia assay; assay type: in vivo; details: female DBF mice, oral gavage for 6 days, serum ionized calcium 6 hours after last dosing
Description: 4. The Mouse Hypercalcemia Assay
(4) Materials and Method for the Mouse Hypercalcemia Assay: […]

[4] = target: T1, VDR (pGal4-VDR-LBD) (Homo sapiens, UniProt P11473); experiment: VDR CTF (Caco-2 cell co-transfection assay); assay type: cell-based; details: Caco-2 cells, Gal4-responsive reporter pFRLuc; surrogate for calcemic activity
T1 construct: the receptor expression vector pGal4-VDR-LBD (10 ng); expressed in transfected cells; host or cells: Caco-2 cells
T1 sequence (P11473 127-423 limits assumed): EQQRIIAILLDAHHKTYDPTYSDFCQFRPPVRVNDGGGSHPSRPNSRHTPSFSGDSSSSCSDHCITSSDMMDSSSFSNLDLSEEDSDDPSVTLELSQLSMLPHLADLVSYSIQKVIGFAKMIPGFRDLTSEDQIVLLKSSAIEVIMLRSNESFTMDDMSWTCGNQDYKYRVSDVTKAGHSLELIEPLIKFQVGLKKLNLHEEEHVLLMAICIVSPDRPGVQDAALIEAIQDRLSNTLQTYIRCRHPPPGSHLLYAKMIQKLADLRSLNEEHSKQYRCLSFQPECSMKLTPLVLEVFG
Method: 2. The Caco-2 Cell Co-Transfection Assay:
The Caco-2 cell assay is an indicator for the undesirable condition of hypercalcemia. This co-transfection assay is a surrogate assay for in vivo calcemic activity of VDR ligands. […] Preferred assay results are greater than 1000 nM.
(2) Materials and Method for the Caco-2 Cell Assay:
Caco-2 cells, grown in phenol red free, DMEM (Invitrogen, Carlsbad, Calif.) containing 10% charcoal-stripped FCS (Hyclone, Logan, Utah), were transfected with Fugene 6 reagent (Roche Diagnostics, Indianapolis, Ind.). Cells (5000/well) were plated 18 h before transfection in a 96 well plate. The Cells were transfected with Gal4-responsive reporter pFRLuc (150 ng, Stratagene, La Jolla Calif.) and the receptor expression vector pGal4-VDR-LBD (10 ng), along with Fugene 6 reagent (0.2 μl/well). The DNA-Fugene complex was formed by incubating the mixture for 30 min at room temperature. The cells were transfected in triplicate for 5 h, and treated with various concentrations of VDR ligands (form 0.01 nM to 10,000 nM concentration range) 18 h post-transfection. The luciferase activity was quantified using Steady-Glo reagent kit (Promega, Madison, Wis.) as per manufacturer's specifications.

Compound | pIC50 [1] | pEC50 [2] | pEC50 ([2]; Rattus norvegicus, 48 h) | Mouse Hypercal [3] [µg/kg/day] | pEC50 [4]
CCC(O)(CC)COc1ccc(C(CC)(CC)c2ccc(C(=O)NCC(=O)O)c(C)c2)cc1C [Ex. 3, (4-{1-ethyl-1-[4-(2-ethyl-2-hydroxy-butoxy)-3-methyl-phenyl]-propyl}-2-methyl-benzoylamino)-acetic acid] | 6.14 | 7.71 | 7.77 | 1000 | 6.09
CCC(CC)(c1ccc(OCC(O)(C(C)C)C(C)C)c(C)c1)c1ccc(C(=O)NCC(=O)O)c(C)c1 [Ex. 4, (4-{1-Ethyl-1-[4-(2-hydroxy-2-isopropyl-3-methyl-butoxy)-3-methyl-phenyl]-propyl}-2-methyl-benzoylamino)-acetic acid] | 6.32 | 7.56 | 7.68 | 73000 | 6.01
